These are literature values, as cited in US20220175829A1, “Antimicrobial Compositions” (Matoke Holdings Limited, priority 2019, published 2022).

The conditions of this data set: 20° C. and 1 atm.

With `O=C(CO)[C@@H](O)[C@H](O)[C@H](O)CO` [Fructose], the solubility entry is “about 375 g/100 g water”.
